≈ marks a conversion by molar mass, not a printed value.
Columns and labels:
[1] = Aqueous solubility of the compound at physiological pH; type: physicochemical; conditions: buffer
[2] = target: Matrix metalloproteinase-9 (Homo sapiens, UniProt P14780); assay: Inhibition of MMP9 (unknown origin) expressed in Escherichia coli BL21(DE3) using Mca-Pro-Leu-Gly-Leu-Dpa-Ala-Arg-NH2 as substrate after 20 to 30 mins by spectrofluorimetric analysis
[3] = target: 72 kDa type IV collagenase (Homo sapiens, UniProt P08253); assay: Inhibition of MMP2 (unknown origin) expressed in Escherichia coli BL21(DE3) using Mca-Pro-Leu-Gly-Leu-Dpa-Ala-Arg-NH2 as substrate after 20 to 30 mins by spectrofluorimetric analysis
Matrilysin = target: T1, Matrilysin (Homo sapiens, UniProt P09237); assay: Inhibition of MMP7 (unknown origin) expressed in Escherichia coli BL21(DE3) using Mca-Pro-Leu-Gly-Leu-Dpa-Ala-Arg-NH2 as substrate after 20 to 30 mins by spectrofluorimetric analysis
T1 sequence (P09237 whole entry): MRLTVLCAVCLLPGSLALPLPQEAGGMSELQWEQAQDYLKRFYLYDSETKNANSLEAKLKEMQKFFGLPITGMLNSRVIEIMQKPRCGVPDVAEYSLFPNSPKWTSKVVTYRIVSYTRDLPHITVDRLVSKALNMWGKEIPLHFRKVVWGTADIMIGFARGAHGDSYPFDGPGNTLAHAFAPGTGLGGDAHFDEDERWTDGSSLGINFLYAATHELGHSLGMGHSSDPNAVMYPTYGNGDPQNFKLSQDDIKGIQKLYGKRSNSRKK

Collagenase 3 = Collagenase 3 (Homo sapiens, UniProt P45452); assay: Inhibition of MMP13 (unknown origin) expressed in Escherichia coli BL21(DE3) using Mca-Pro-Leu-Gly-Leu-Dpa-Ala-Arg-NH2 as substrate after 20 to 30 mins by spectrofluorimetric analysis
Interstitial collagenase = Interstitial collagenase (Homo sapiens, UniProt P03956); assay: Inhibition of human interstitial recombinant N-terminal MMP1 expressed in Escherichia coli BL21(DE3) using Mca-Pro-Leu-Gly-Leu-Dpa-Ala-Arg-NH2 as substrate after 20 to 30 mins by spectrofluorimetric analysis
Sequence of Interstitial collagenase (P03956 whole entry): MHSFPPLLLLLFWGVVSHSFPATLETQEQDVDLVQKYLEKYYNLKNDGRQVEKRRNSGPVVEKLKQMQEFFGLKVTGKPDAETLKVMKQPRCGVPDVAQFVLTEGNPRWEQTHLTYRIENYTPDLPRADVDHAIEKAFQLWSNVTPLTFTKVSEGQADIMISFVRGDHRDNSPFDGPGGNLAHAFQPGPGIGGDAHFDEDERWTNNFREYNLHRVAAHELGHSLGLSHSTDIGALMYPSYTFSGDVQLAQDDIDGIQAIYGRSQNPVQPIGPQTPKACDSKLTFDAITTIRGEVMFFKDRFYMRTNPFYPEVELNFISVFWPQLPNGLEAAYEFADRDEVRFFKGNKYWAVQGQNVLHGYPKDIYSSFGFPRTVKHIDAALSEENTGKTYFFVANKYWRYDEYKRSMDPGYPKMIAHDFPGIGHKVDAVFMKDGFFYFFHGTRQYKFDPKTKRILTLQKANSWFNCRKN

Sequence of 72 kDa type IV collagenase (P08253 whole entry): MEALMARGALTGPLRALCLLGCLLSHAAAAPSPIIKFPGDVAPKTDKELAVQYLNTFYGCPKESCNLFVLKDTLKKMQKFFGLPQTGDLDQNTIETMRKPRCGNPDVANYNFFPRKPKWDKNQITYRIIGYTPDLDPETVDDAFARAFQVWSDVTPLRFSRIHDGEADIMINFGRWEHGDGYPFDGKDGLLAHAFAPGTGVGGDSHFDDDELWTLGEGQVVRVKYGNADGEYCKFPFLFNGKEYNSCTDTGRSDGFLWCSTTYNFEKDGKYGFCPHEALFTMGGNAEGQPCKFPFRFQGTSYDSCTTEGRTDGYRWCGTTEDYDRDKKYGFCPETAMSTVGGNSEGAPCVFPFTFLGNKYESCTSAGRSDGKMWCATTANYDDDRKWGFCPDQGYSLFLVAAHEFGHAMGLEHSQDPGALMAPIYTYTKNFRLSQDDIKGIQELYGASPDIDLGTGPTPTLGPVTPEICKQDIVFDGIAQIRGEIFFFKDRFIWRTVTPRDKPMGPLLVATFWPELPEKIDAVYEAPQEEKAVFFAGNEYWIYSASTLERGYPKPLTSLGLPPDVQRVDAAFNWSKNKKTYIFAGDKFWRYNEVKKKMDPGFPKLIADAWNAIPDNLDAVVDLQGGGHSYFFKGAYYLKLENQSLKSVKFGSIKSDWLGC
Sequence of Matrix metalloproteinase-9 (P14780 whole entry): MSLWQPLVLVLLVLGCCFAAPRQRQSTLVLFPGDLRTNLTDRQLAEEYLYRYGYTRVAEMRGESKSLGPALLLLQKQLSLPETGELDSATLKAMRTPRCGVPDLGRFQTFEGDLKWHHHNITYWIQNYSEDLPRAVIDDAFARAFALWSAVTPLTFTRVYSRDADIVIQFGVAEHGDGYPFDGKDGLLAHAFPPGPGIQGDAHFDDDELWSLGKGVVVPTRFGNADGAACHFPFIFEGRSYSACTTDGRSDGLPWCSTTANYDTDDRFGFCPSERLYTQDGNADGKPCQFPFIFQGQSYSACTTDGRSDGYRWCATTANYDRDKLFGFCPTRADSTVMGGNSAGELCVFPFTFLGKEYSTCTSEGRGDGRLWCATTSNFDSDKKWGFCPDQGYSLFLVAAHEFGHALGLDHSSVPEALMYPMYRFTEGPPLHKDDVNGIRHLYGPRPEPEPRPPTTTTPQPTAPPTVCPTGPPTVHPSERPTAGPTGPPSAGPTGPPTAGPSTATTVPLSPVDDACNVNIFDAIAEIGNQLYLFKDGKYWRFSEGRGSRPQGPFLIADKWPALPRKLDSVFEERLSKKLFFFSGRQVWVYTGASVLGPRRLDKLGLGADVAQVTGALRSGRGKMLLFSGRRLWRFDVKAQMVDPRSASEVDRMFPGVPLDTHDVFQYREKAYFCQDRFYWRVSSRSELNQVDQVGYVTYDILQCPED

Structure (SMILES) | solubility [1] [µg/mL] | IC50 [2] [nM] | IC50 [3] [nM] | IC50 (Matrilysin) [nM] | IC50 (Collagenase 3) [nM] | IC50 (Interstitial collagenase) [nM]
COc1ccc(S(=O)(=O)N2CCCSC(C)(C)[C@@H]2C(=O)NO)cc1 | 800 (≈ 2140 µM) |  |  |  |  | 
COc1ccc(S(=O)(=O)N2CCSC(C)(C)C2C(=O)NO)cc1 (stereo unspecified) |  | 0.9 | 1.4 | 23 | 1 | 0.4
